Values after ≈ are worked out from the molar mass of the structure shown.
Tests used:
CDK2 = CDK2 (Homo sapiens, UniProt P24941); conditions: cited from earlier work
CDK6 = CDK6 (Homo sapiens, UniProt Q00534); conditions: cited from earlier work
CDK4 = CDK4 (Homo sapiens, UniProt P11802); conditions: cited from earlier work
HCT-116 human cells = conditions: cited from earlier work
CDK1 = CDK1 (Homo sapiens, UniProt P06493); conditions: cited from earlier work
[1] = human
From the text: Potential human toxicity of 2,4,6-THBA can be related to its toxicity based on studies with Daphnia.

Daphnia magna [2] = conditions: in vivo, 48 h
Method: Toxicity is determined using a Daphnia magna mobility assay as described (Kamaya et al., 2005). Neonates (<24 h old) from 2-3-week-old mothers are placed in a 50 ml glass beaker containing 40 ml of a test solution. All experiments for exposure and controls without chemicals are made in four replicates and performed at 21±0.3° C. under 16 h light: 8 h dark photoperiod. Immobility is used as the endpoint for determining acute toxicity; the daphnids showing no movement within 15 s after gentle stirring are defined to be immobile. After 24 and 48 h, the number of immobile daphnids is recorded to determine the concentration able to achieve 50% immobilization and it is indicated as EC50. The EC50 values are calculated by Probit analyses (USEPA, 1993), based on nominal concentrations and compared to similar experiments using benzoic acid and 2,4,6-THBA.

Daphnia magna [3] = conditions: cited from earlier work
[4] = test system: Pseudokirchneriella subcapitata; conditions: 48 h
Method: Toxicity is determined using green algae Pseudokirchneriella subcapitata growth rate assay as described (Lee and Chen, 2009). Algal inoculum are withdrawn from the chemostat operated under a steady state, and transferred into 300 mL BOD bottles, together with dilution water (with growth medium) and toxicants. The BOD bottles are filled completely, leaving no headspace. A water seal is provided to ensure a closed test environment. The bottles are then placed on an orbital shaker operated at 100 rpm. Temperature and light intensity are kept at 24±1©° C. and 65 microEm−2 s−1 (±10%), respectively. US EPA bottle medium, with no EDTA content is used for toxicity testing. A sample of lyophilized quercetin (10%)/PVP (90%) is resuspended in solution. Two response endpoints are used to evaluate the toxicity of the resuspended quercetin; the final yield and algal growth rate based on cell density counts. […] The initial inoculated cell density is 15,000 cells/mL and the duration of the test is 48 h.

[5] = test system: Pseudokirchneriella subcapitata; conditions: cited from earlier work
[6] = humans, cited from earlier work
[7] = human oral exposure; cited from earlier work

CDK4, sequence (P11802 whole entry): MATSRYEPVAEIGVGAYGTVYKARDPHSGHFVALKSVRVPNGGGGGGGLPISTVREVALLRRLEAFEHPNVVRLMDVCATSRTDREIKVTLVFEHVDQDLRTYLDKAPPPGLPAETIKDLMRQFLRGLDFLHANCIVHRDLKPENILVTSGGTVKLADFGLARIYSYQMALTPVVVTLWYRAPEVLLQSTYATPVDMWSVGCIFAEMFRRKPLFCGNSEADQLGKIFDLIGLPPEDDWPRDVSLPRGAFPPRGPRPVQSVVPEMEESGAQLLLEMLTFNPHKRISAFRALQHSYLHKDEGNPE
CDK4, sequence (P24385 whole entry partner): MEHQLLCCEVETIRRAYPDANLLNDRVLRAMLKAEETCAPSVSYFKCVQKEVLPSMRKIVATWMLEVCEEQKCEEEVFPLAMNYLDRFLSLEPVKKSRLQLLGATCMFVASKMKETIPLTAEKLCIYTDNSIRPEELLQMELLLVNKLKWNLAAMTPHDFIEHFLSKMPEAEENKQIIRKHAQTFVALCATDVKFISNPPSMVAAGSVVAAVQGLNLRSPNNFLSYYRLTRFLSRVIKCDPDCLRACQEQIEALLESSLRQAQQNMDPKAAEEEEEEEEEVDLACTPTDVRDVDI
CDK6, sequence (Q00534 whole entry): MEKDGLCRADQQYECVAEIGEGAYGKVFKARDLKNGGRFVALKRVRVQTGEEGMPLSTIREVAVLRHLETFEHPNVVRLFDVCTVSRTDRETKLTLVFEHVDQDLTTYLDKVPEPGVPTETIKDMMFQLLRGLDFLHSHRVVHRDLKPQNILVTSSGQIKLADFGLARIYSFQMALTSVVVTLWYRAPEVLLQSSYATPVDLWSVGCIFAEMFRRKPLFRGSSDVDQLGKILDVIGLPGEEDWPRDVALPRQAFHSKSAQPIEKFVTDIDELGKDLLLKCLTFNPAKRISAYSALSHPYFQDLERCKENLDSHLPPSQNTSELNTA
CDK6, sequence (P24385 whole entry partner): as the sequence (P24385 whole entry partner) above
CDK1, sequence (P06493 whole entry, species assumed): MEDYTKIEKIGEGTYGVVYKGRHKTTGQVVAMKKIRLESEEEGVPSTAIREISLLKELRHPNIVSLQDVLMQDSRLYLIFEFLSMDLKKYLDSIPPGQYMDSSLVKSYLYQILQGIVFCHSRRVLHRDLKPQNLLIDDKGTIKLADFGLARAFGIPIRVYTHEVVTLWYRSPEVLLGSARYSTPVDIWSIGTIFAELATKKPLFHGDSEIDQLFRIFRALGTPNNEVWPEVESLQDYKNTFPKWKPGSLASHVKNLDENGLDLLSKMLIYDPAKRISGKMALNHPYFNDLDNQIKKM
CDK1, sequence (P14635 whole entry partner, species assumed): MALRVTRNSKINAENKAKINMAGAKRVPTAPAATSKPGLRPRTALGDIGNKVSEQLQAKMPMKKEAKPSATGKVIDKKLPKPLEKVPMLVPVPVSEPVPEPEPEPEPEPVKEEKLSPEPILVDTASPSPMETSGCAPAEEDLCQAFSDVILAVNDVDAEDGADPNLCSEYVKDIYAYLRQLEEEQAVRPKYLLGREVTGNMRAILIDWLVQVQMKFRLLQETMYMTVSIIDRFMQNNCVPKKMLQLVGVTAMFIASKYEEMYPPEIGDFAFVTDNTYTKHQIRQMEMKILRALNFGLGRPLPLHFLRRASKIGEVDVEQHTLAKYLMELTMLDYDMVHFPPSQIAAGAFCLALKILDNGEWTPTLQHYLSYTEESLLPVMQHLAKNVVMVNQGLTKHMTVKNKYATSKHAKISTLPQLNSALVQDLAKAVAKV

SMILES | inhibitory effect on CDK2 (CDK2) | inhibitory effect on CDK6 (CDK6) | inhibitory effect on CDK4 (CDK4) | cytotoxicity compared to other salicylic acid metabolites (HCT-116 human cells) | inhibitory effect on CDK1 (CDK1) | RfD estimated from Daphnia EC50 [1] [mg/kg/day] | RfD-based toxicity relative to benzoic acid [1] | RfD-based toxicity relative to quercetin [1] [times] | toxicity relative to benzoic acid (Daphnia magna [2]) | EC50 at 48 h, mobility assay (Daphnia magna [3]) [µg/mL] | LC50 in 48 h, immobilization test (Daphnia magna [3]) [µg/mL] | toxicity relative to benzoic acid and its other derivatives [4] [times] | EC50, suppression of growth [5] [µg/mL] | elimination half-life ([6]; after ingestion in foods or supplements) [h] | bioavailability of quercetin [6] | RfD / toxicity in humans [7]
O=C(O)c1c(O)cc(O)cc1O [2,4,6-THBA, 2,4,6-trihydroxybenzoic acid] | strong inhibitory effect | strong inhibitory effect | strong inhibitory effect | more cytotoxic | strong inhibitory effect | 0.02 | more than 50 times | 700 | about 500 times | 1.7 (≈ 9.99 µM) | 1.7 (≈ 9.99 µM) | 70 | 0.546 | – | – | –
O=c1c(O)c(-c2ccc(O)c(O)c2)oc2cc(O)cc(O)c12 [quercetin, 2-(3,4-dihydroxyphenyl)-3,5,7-trihydroxy-4H-chromen-4-one] | – | – | – | – | – | – | – | – | – | – | – | – | – | 1 to 2 | 0-50% | more than 15 mg/kg/day
O=C(O)c1ccccc1 [benzoic acid] | – | – | – | – | – | – | – | – | – | 860 (≈ 7040 µM) | – | – | 36 | – | – | 1 mg/kg/day

From patent US20200197354A1, “METHODS, COMPOSITIONS AND CONTAINERS FOR REDUCING SOLID FORM QUERCETIN DEGRADATION AND 2,4,6-TRIHYDROXYBENZOIC ACID TOXIC BYPRODUCT THEREOF” (PUBLIC JOINT STOCK COMPANY "SCIENTIFICINDUSTRIALCENTRE …, priority 2018, published 2020)
